Drawing on patent US20230111768A1 (Razi University, priority 2021, published 2023), this text covers IC50 for two molecules.

Common to all, as to assay type: cell-based
Assay [1] deals with A-431 cell line. In words: MTT assay on A-431 cell line. The settings on record: Homo sapiens, after 24 hours of treatment, epidermoid carcinoma cell line. As to the method: (§1) In this example, anti-cancer activity of benzo[4,5]imidazo[2,1-b]pyrimido[4,5-d][1,3]thiazine-2,4(3H)-dione and benzo[4,5]imidazo[2,1-b][1,3]thiazin-4-one was evaluated on A-431 cell line (an exemplary epidermoid carcinoma cell line), PC-3 cell line (an exemplary classical prostate cancer cell line), PANC-1 cell line (an exemplary pancreas ductal adenocarcinoma cell line)) by conducting an exemplary […] (MTT) assay. Cytotoxic effect of benzo[4,5]imidazo[2,1-b]pyrimido[4,5-d][1,3]thiazine-2,4(3H)-dione and benzo[4,5]imidazo[2,1-b][1,3]thiazin-4-one was also evaluated on Human Dermal Fibroblasts (HDF) cell line (an exemplary normal, human, adult cell line).
(§2) Meanwhile, the A-431, PC-3, and PANC-1 cell lines were tested by MTT assay after being cultured in DMSO with a concentration of about 1% (v/v) and Etoposide (an anti-cancer chemotherapy drug) as negative and positive controls, respectively. […] “IC50” may refer to a concentration of a compound that may inhibit cell growth and proliferation by 50%.

Assay [2] has as its system PC-3 cell line. In words: MTT assay on PC-3 cell line. As to conditions: Homo sapiens, after 24 hours of treatment, prostate cancer cell line. As to the method:
as §1, §2

For assay [3], the system named is Human Dermal Fibroblasts (HDF) cell line. Put plainly: MTT assay, cytotoxic effect on Human Dermal Fibroblasts (HDF) cell line. As to conditions: after 24 hours of treatment, normal human adult cell line. The protocol:
as §1, §2

The test system of assay [4] is PANC-1 cell line. Put plainly: MTT assay on PANC-1 cell line. The settings on record: Homo sapiens, after 24 hours of treatment, pancreas ductal adenocarcinoma cell line. The protocol: as §1, §2

Consider `COc1cc([C@@H]2c3cc4c(cc3[C@@H](O[C@@H]3O[C@@H]5CO[C@@H](C)O[C@H]5[C@H](O)[C@H]3O)[C@H]3COC(=O)[C@H]23)OCO4)cc(OC)c1O` [Etoposide, reference compound], for which the IC50 was 27 µM in assay [1], 25.2 µM in assay [2], greater than 100 µM in assay [3] and 32.2 µM in assay [4].
`Cc1ccc(C2=C3C(=O)N(C)C(=O)N(C)C3n3c(nc4ccccc43)S2)cc1` (centres unmarked): the 50% inhibitory concentration (IC50) is 25.3 µM in assay [1], 31.9 µM in assay [2], greater than 100 µM in assay [3] and 24.6 µM in assay [4].
